Test: xn = mol fraction of the nth substance listed, in the solute-free solvent

CN1CCN(C2=Nc3cc(Cl)ccc3Nc3ccccc32)CC1 + C1CCOC1 + Cc1ccccc1
solubility (g/100 g solution)
Conditions | x2 = 0.1243 | x2 = 0.242 | x2 = 0.3539 | x2 = 0.4601 | x2 = 0.5602 | x2 = 0.6569 | x2 = 0.749 | x2 = 0.8361 | x2 = 0.9197
293.15 K | 3.93 | 5.65 | 8.04 | 9.98 | 13 | 15.3 | 17.5 | 20.9 | 23.9
298.15 K | 4.3 | 6.76 | 8.83 | 11.7 | 14.2 | 16.5 | 20.5 | 22.2 | 25.6
303.15 K | 5.04 | 7.34 | 9.84 | 13.1 | 15.8 | 18.8 | 21.9 | 25 | 28.1
308.15 K | 6.11 | 8.39 | 11.2 | 14.4 | 17.5 | 20.6 | 24 | 26 | 29.8
313.15 K | 7.2 | 9.63 | 12.2 | 16.4 | 19.5 | 22.7 | 25.9 | 29 | 31.9
318.15 K | 8.19 | 10.7 | 14.6 | 18.1 | 21.4 | 24.9 | 27.9 | 30.5 | 33.7
323.15 K | 8.82 | 12.2 | 15.9 | 20.1 | 23.6 | 27 | 29.6 | 33.1 | 36.6

Nc1ccc(Oc2ccc(N)cc2)cc1 + CS(C)=O + CCO
solubility (g/100 g solution)
Conditions | 293.15 K | 298.15 K | 303.15 K | 308.15 K | 313.15 K | 318.15 K | 323.15 K | 328.15 K | 333.15 K
x2 = 0.06154 | 0.705 | 0.952 | 1.2 | 1.28 | 1.56 | 1.81 | 2.13 | 2.45 | 2.97
x2 = 0.1286 | 1.54 | 1.73 | 2.16 | 2.39 | 2.54 | 3.27 | 3.57 | 4.14 | 4.81
x2 = 0.2019 | 2.84 | 3.16 | 3.74 | 4.14 | 4.64 | 5.35 | 5.87 | 6.46 | 7.63
x2 = 0.2824 | 5.08 | 5.51 | 6.34 | 6.77 | 7.36 | 8.3 | 9.1 | 10.2 | 11.8
x2 = 0.3711 | 8.32 | 8.84 | 9.8 | 10.4 | 11.4 | 12.3 | 13.3 | 14.7 | 16.3
x2 = 0.4696 | 12.3 | 13.1 | 14.1 | 15 | 16 | 17.2 | 18.2 | 19.7 | 21.4
x2 = 0.5793 | 17 | 18.3 | 19.1 | 20.1 | 21 | 22.4 | 23.4 | 24.9 | 26.6
x2 = 0.7024 | 22 | 23.1 | 24 | 24.9 | 25.9 | 26.9 | 28.1 | 29.7 | 31.3
x2 = 0.8416 | 26.8 | 27.7 | 28.6 | 29.6 | 30.2 | 31.6 | 32.7 | 34.1 | 35.7

CCC(C)n1ncn(-c2ccc(N3CCN(c4ccc(OCC5COC(Cn6cncn6)(c6ccc(Cl)cc6Cl)O5)cc4)CC3)cc2)c1=O (stereo not given) + ClC(Cl)Cl + CCO
solubility (g/100 g solution)
Conditions | x2 = 0.04158 | x2 = 0.08894 | x2 = 0.1434 | x2 = 0.2065 | x2 = 0.2808 | x2 = 0.3694 | x2 = 0.4767 | x2 = 0.6097 | x2 = 0.7785
288.15 K | 0.0692 | 0.133 | 0.268 | 0.494 | 1.05 | 3.89 | 10.7 | 19.4 | 26.1
293.15 K | 0.0835 | 0.16 | 0.32 | 0.565 | 1.38 | 4.82 | 12 | 20.6 | 26.9
298.15 K | 0.0993 | 0.189 | 0.375 | 0.644 | 1.77 | 6 | 13.4 | 21.8 | 27.8
303.15 K | 0.117 | 0.225 | 0.442 | 0.733 | 2.24 | 7.3 | 14.8 | 23 | 28.7
308.15 K | 0.138 | 0.267 | 0.516 | 0.832 | 2.82 | 8.83 | 16.4 | 24.2 | 29.5

Cc1[nH]c(=O)c(C#N)cc1-c1ccncc1 + OCCO + O
solubility (g/100 g solution)
Conditions | 278.15 K | 283.15 K | 288.15 K | 293.15 K | 298.15 K | 303.15 K | 308.15 K | 313.15 K | 318.15 K | 323.15 K
x2 = 0.03125 | 0.000882 | 0.00106 | 0.00125 | 0.00147 | 0.00171 | 0.00196 | 0.00222 | 0.00252 | 0.00285 | 0.00321
x2 = 0.06767 | 0.00131 | 0.00157 | 0.00185 | 0.00216 | 0.00252 | 0.00288 | 0.00326 | 0.0037 | 0.00417 | 0.0047
x2 = 0.1107 | 0.00189 | 0.00227 | 0.00266 | 0.00311 | 0.00362 | 0.00413 | 0.00467 | 0.00529 | 0.00595 | 0.0067
x2 = 0.1622 | 0.00264 | 0.00316 | 0.0037 | 0.00432 | 0.00502 | 0.00573 | 0.00647 | 0.00732 | 0.00821 | 0.00925
x2 = 0.225 | 0.00351 | 0.0042 | 0.00493 | 0.00575 | 0.00666 | 0.0076 | 0.00858 | 0.00971 | 0.0109 | 0.0123
x2 = 0.3034 | 0.00434 | 0.00527 | 0.00628 | 0.00732 | 0.00847 | 0.00967 | 0.0109 | 0.0123 | 0.0138 | 0.0155
x2 = 0.4038 | 0.00509 | 0.00622 | 0.00737 | 0.00855 | 0.00992 | 0.0116 | 0.0131 | 0.0148 | 0.0165 | 0.0186
x2 = 0.5373 | 0.00576 | 0.00696 | 0.00818 | 0.00966 | 0.0113 | 0.0129 | 0.0147 | 0.0167 | 0.0186 | 0.0211
x2 = 0.7232 | 0.00605 | 0.0074 | 0.00868 | 0.0102 | 0.0118 | 0.0135 | 0.0153 | 0.0174 | 0.0195 | 0.0223

Nc1[nH]c(=O)ncc1F + CN(C)C=O + CC(C)O
solubility (g/100 g solution)
Conditions | 283.15 K | 288.15 K | 293.15 K | 298.15 K | 303.15 K | 308.15 K | 313.15 K | 318.15 K | 323.15 K
x2 = 0.0837 | 0.0457 | 0.057 | 0.0702 | 0.0871 | 0.105 | 0.126 | 0.149 | 0.174 | 0.203
x2 = 0.1705 | 0.0578 | 0.0715 | 0.0887 | 0.107 | 0.128 | 0.152 | 0.178 | 0.209 | 0.245
x2 = 0.2605 | 0.0731 | 0.0892 | 0.107 | 0.13 | 0.155 | 0.183 | 0.214 | 0.248 | 0.285
x2 = 0.354 | 0.0896 | 0.107 | 0.127 | 0.153 | 0.182 | 0.214 | 0.249 | 0.288 | 0.333
x2 = 0.4512 | 0.106 | 0.126 | 0.151 | 0.18 | 0.213 | 0.248 | 0.284 | 0.327 | 0.376
x2 = 0.5522 | 0.121 | 0.143 | 0.17 | 0.203 | 0.236 | 0.273 | 0.315 | 0.36 | 0.413
x2 = 0.6573 | 0.137 | 0.16 | 0.189 | 0.221 | 0.258 | 0.298 | 0.342 | 0.391 | 0.447
x2 = 0.7668 | 0.153 | 0.18 | 0.209 | 0.242 | 0.281 | 0.322 | 0.369 | 0.426 | 0.484
x2 = 0.8809 | 0.173 | 0.201 | 0.23 | 0.267 | 0.306 | 0.351 | 0.402 | 0.46 | 0.524

OCCN(CCO)c1nc(N2CCCCC2)c2nc(N(CCO)CCO)nc(N3CCCCC3)c2n1 + CCO + O
solubility (g/100 g solution)
Conditions | 293.15 K | 298.15 K | 303.15 K | 308.15 K | 313.15 K | 318.15 K | 323.15 K | 328.15 K
x2 = 0.3 | 1.64 | 1.81 | 2.52 | 3.79 | 5.33 | 8.14 | 12.5 | 18
x2 = 0.4 | 2.59 | 3.74 | 5.59 | 7.99 | 10.8 | 16 | 22.2 | 29.9
x2 = 0.5 | 4.37 | 6.13 | 8.44 | 11.4 | 15.2 | 20.7 | 28.1 | 36.2
x2 = 0.6 | 5.48 | 7.13 | 9.58 | 13.1 | 16.6 | 22.2 | 29.3 | 37
x2 = 0.7 | 5.8 | 7.49 | 9.93 | 13.1 | 16.7 | 21.9 | 28.4 | 35.8
x2 = 0.8 | 5.06 | 6.52 | 8.76 | 11.6 | 14.9 | 19.3 | 25.6 | 32.2
x2 = 0.9 | 4.28 | 5.36 | 7.23 | 9.43 | 11.7 | 15.1 | 20.7 | 26.7

CN1CCN(C2=Nc3cc(Cl)ccc3Nc3ccccc32)CC1 + Cc1ccccc1 + CC(C)=O
323.15 K
Conditions | solubility (g/100 g solution)
x2 = 0.06574 | 13.6
x2 = 0.1358 | 15.9
x2 = 0.2124 | 17.4
x2 = 0.2962 | 17
x2 = 0.3864 | 17
x2 = 0.4859 | 16
x2 = 0.5953 | 14.7
x2 = 0.7159 | 12.9
x2 = 0.8497 | 10.3

S=c1[nH]ncs1 + CCCO + O
solubility (g/100 g solution)
Conditions | 278.15 K | 283.15 K | 288.15 K | 293.15 K | 298.15 K | 303.15 K | 308.15 K | 313.15 K | 318.15 K | 323.15 K
x2 = 0.1 | 1.64 | 2.13 | 2.71 | 3.49 | 4.42 | 5.59 | 6.98 | 8.6 | 10.7 | 13.4
x2 = 0.2 | 3.48 | 4.3 | 5.41 | 6.75 | 8.22 | 10 | 12.1 | 14.6 | 17.5 | 20.8
x2 = 0.3 | 5.01 | 6.25 | 7.53 | 9.11 | 10.8 | 12.9 | 15.4 | 18.1 | 21.5 | 25.1
x2 = 0.4 | 6.2 | 7.46 | 8.98 | 10.7 | 12.7 | 14.7 | 17.2 | 20.1 | 23.3 | 26.9
x2 = 0.5 | 7.02 | 8.48 | 9.9 | 11.7 | 13.5 | 15.7 | 18.1 | 20.8 | 23.9 | 27.3
x2 = 0.6 | 7.59 | 8.9 | 10.3 | 11.9 | 13.8 | 15.9 | 18.2 | 20.4 | 23.3 | 26.4
x2 = 0.7 | 7.61 | 8.94 | 10.3 | 11.8 | 13.6 | 15.4 | 17.3 | 19.7 | 22.2 | 25.2
x2 = 0.8 | 7.47 | 8.6 | 9.84 | 11.4 | 13.1 | 14.6 | 16.8 | 18.9 | 21.2 | 24.1
x2 = 0.9 | 6.73 | 8.12 | 8.99 | 10.4 | 11.8 | 13.5 | 15.3 | 17.3 | 19.6 | 22.2

From the CheMixHub drug solubility set
